Assay results from patent US8044071B2, “Method for reducing side effects of CB2 receptor agonist therapy using a combination of a selective CB2 receptor agonist and a selective CB1 receptor antagonist” (Abbott Laboratories, priority 2007, dated 2011).
Where two headings read alike, the source gives them in different places.

Experiments:
[1] = biological target: T1, human CB2 receptors (Homo sapiens, UniProt P34972); experiment: CB2 radioligand binding assay ([3H]CP-55,940 competition)
T1 construct: expressed in transfected cells
Experimental: (§1) To determine the selectivity (Ki) of the compounds of the present application for CB2 receptors relative to CB1 receptors, radioligand binding assays are performed, which are described herein.
For CB2 radioligand binding assays, HEK293 cells stably expressing human CB2 receptors were grown until a confluent monolayer was formed. Briefly, the cells were harvested and homogenized in TE buffer (50 mM Tris-HCl, 1 mM MgCl2, and 1 mM EDTA) using a polytron for 2×10 second bursts in the presence of protease inhibitors, followed by centrifugation at 45,000×g for 20 minutes. The final membrane pellet was re-homogenized in storage buffer (50 mM Tris-HCl, 1 mM MgCl2, and 1 mM EDTA and 10% sucrose) and frozen at −78° C. until used. Saturation binding reactions were initiated by the addition of membrane preparation (protein concentration of 5 μg/well for human CB2) into wells of a deep well plate containing [^3H]CP-55,940 (120 Ci/mmol, a nonselective CB agonist commercially available from Tocris) in assay buffer (50 mM Tris, 2.5 mM EDTA, 5 mM MgCl2, and 0.5 mg/mL fatty acid free BSA, pH 7.4). After 90 min incubation at 30° C., binding reaction was terminated by the addition of 300 μl/well of cold assay buffer followed by rapid vacuum filtration through a UniFilter-96 GF/C filter plates (pre-soaked in 1 mg/mL BSA for 2 hours). The bound activity was counted in a TopCount using Microscint-20. […]

[2] = biological target: T2, human CB1 (Homo sapiens, UniProt P21554); experiment: CB1 radioligand binding assay ([3H]CP-55,940 competition)
T2 construct: purchased Perkin Elmer; host or cells: HEK293 membranes
Experimental: as §1
For CB1 radioligand binding assay HEK293 human CB1 membranes were purchased from Perkin Elmer. Binding was initiated by the addition of membranes (8-12 μg per well) into wells (Scienceware 96-well DeepWell plate, VWR, West Chester, Pa.) containing [^3H]CP-55,940 (120 Ci/mmol, Perkin Elmer, Boston, Mass.) and a sufficient volume of assay buffer (50 mM Tris, 2.5 mM EDTA, 5 mM MgCl2, and 0.5 mg/mL fatty acid free BSA, pH 7.4) to bring the total volume to 250 μL. After incubation (30° C. for 90 minutes), binding was terminated by the addition of 300 μL per well of cold assay buffer and rapid vacuum filtration (FilterMate Cell Harvester, Perkin Elmer, Boston, Mass.) through a UniFilter-96 GF/C filter plate (Perkin Elmer, Boston, Mass.) (pre-soaked in 0.3% PEI at least 3 hours), followed by five washes with cold assay buffer. The bound activity was counted in the TopCount using Microscint-20 (both from Perkin Elmer, Boston, Mass.). Competition experiments were conducted with 1 nM [^3H]CP-55,940 and five concentrations (1 nM to 10 μM) of displacing ligands. The addition of 10 μM unlabeled CP-55,940 (Tocris, Ellisville, Mo.) was used to assess nonspecific binding.

[3] = test system: skin incision model of postoperative pain; experiment: Skin incision model of postoperative pain (tactile allodynia, von Frey); assay type: in vivo; settings: rat; for withdrawal threshold for the incisional paw (allodynia): 10 and 30 μmol/kg i.p., two hours after surgery; for analgesia (tactile allodynia), agonist after rimonabant: 30 μmol/kg i.p. given 15 min after rimonabant 30 μmol/kg i.p.
From the text: Adult male Sprague-Dawley rats (250-300 g body weight, Charles River Laboratories, Portage, Mich.) were used. Animal handling and experimental protocols were approved by the Institutional Animal Care and Use Committee (IACUC) at Abbott Laboratories. For all surgical procedures, animals were maintained under halothane anesthesia (4% to induce, 2% to maintain), and the incision sites were sterilized using a 10% povidone-iodine solution prior to and after surgeries.
A skin incision model of postoperative pain was produced using the procedures described in Brennan et al., 1996, Pain, 64, 493. All rats were anesthetized with isoflurane delivered via a nose cone. Right hind paw incision was performed following sterilization procedures. The plantar aspect of the […] hind paw was placed through a hole in a sterile plastic drape. A 1-cm longitudinal incision was made through the skin and fascia of the plantar aspect of the hind paw, starting 0.5 cm from the proximal edge of the heel and extending towards the toes, the plantar muscle was elevated and incised longitudinally leaving the muscle origin and insertion points intact. The skin was then closed with two mattress sutures (5-0 nylon). After surgery, animals were then allowed to recover for 2 hours, at which time tactile allodynia was assessed as described below. To evaluate the anti-nociceptive effects, animals were i.p. administered vehicle or test compound 90 minutes following skin incision and tactile allodynia was typically assessed 30 minutes after compound administration.
Tactile allodynia was measured using calibrated von Frey filaments (Stoelting, Wood Dale, Ill.) as described in Chaplan, S. R., F. W. Bach, J. W. Porgrel, J. M. Chung and T. L. Yaksh, 1994, Quantitative assessment of tactile allodynia in the rat paw, J. Neurosci. Methods, 53, 55. Rats were placed into inverted individual plastic cage (20×12.5×20 cm) on top of a suspended wire mesh grid, and acclimated to the test chambers for 20 minutes. The von Frey filaments were applied perpendicularly from underneath the cage through openings in the wire mesh floor directly to an area within 1-3 mm (immediately adjacent) of the incision, and then held in this position for approximately 8 seconds with enough force to cause a slight bend in the filament. Positive responses included an abrupt withdrawal of the hind paw from the stimulus, or flinching behavior immediately following removal of the stimulus. A 50% withdrawal threshold was determined using an up-down procedure as described in Dixon, W. J., 1980, Efficient analysis of experimental observations, Ann. Rev. Pharmacol. Toxicol., 20, 441. The effect on paw withdrawal latency of test compounds compared to vehicle control represents the ability of the test compound to reduce allodynia. An increase in the paw withdrawal latency represents an anti-allodynic effect (i.e., a decrease in pain).
Using the skin incisional model of postoperative pain, the effects of compound A, CB2 agonist (Z)—N-(5-tert-butyl-3-butylthiazol-2(3H)-ylidene)-5-chloro-2-methoxybenzamide, on allodynia was assessed two hours after surgery.
Using the skin incisional model of postoperative pain, the effects of CB2 agonist A were evaluated after the administration of vehicle or the CB1 antagonist rimonabant. This effect was compared with the administration of vehicle after the administration of vehicle or the CB1 antagonist rimonabant. A first dose, consisting of CB1 antagonist rimonabant (30 μmol/kg i.p.) or a vehicle (5% DMSO/PEG), was administered 15 minutes before a second dose, consisting of administration of CB2 agonist A (30 μmol/kg i.p.) or vehicle. Allodynia testing was conducted 30 minutes after administration of the second dose, either CB2 agonist A or vehicle.

T1 sequence (P34972 whole entry): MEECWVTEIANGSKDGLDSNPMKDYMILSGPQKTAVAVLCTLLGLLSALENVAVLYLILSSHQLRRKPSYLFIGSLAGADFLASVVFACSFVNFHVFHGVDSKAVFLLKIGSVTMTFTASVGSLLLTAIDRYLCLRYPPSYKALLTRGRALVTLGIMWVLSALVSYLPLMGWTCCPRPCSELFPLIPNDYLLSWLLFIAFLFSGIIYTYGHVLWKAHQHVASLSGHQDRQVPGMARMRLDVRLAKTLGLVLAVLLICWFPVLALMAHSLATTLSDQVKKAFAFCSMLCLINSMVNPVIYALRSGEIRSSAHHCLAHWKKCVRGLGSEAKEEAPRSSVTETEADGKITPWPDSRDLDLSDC
T2 sequence (P21554 whole entry): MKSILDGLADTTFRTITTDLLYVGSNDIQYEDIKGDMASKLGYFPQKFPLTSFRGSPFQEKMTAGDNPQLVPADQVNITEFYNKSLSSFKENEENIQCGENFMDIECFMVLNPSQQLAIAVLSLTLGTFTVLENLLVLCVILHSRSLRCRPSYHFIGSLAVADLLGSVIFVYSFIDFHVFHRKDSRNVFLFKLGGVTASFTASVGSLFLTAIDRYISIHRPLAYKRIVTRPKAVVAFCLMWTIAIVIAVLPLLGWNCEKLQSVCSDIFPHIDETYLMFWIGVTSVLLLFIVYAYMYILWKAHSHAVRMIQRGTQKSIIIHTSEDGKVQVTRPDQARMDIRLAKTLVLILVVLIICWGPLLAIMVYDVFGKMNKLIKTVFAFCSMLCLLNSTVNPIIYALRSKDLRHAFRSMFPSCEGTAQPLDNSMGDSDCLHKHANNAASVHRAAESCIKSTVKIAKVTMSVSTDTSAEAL

Row | SMILES | Ki ([1]; HEK293 membranes expressing human CB2, 0.5 nM [3H]CP-55,940, read-out: Ki for CB2 receptors) | Ki ([2]; HEK293 human CB1 membranes, 1 nM [3H]CP-55,940, read-out: Ki for CB1 receptors) | withdrawal threshold for the incisional paw (allodynia) [3] | Ki [1] | Ki [2] | analgesia (tactile allodynia), agonist after rimonabant ([3]; tested 30 min after second dose) | analgesia (tactile allodynia), agonist after rimonabant ([3]; tested 30 min after second dose, listed as CB2 agonist A) | analgesia (tactile allodynia), agonist after vehicle ([3]; 30 μmol/kg i.p. given 15 min after vehicle, tested 30 min after second dose)
1 | COCCn1c(C)c(C)s/c1=N\C(=O)C1C(C)(C)C1(C)C [compound B, (Z)—N-(3-(2-methoxyethyl)-4,5-dimethylthiazol-2(3H)-ylidene)-2,2,3,3-tetramethylcyclopropanecarboxamide] | 0.6 nM | 273 nM | re-establishing withdrawal threshold | – | – | – | – | –
2 | CCCCn1cc(C(C)(C)C)s/c1=N\C(=O)c1cc(Cl)ccc1OC [compound A, (Z)—N-(5-tert-butyl-3-butylthiazol-2(3H)-ylidene)-5-chloro-2-methoxybenzamide] | – | – | recovered | 1.8 nM | 3670 nM | equivalent efficacy | able to induce analgesia | able to induce analgesia
